Test results reported in PMC12278645, “Design, synthesis, and antitumor activity of novel thioheterocyclic nucleoside derivatives by suppressing the c-MYC pathway” (Acta Pharmaceutica Sinica. B, 2025).
Where two headings read alike, the source gives them in different places.

Assays:
Acute toxicity assay = format: in vivo; conditions: for Death rate: 10 mice; for Number of dead mice: of 5
Procedure: SPF BALB/c mice were divided into […] randomly (n = 10, 5 male, and 5 female) and injected intraperitoneally with defined dosages of compound 33a (90, 260, 350, 450, 600, and 800 mg/kg) or dilute (DMSO: castor oil: PBS = 1:2:7, v/v/v). The mice were observed continuously for 14 days after administration. The number of mortalities during the experiment was recorded, and the statistical result of the experimental endpoint was used to calculate LD50.

[1] = system: CT26 colon cancer xenograft; assay: CT26 xenograft tumor growth assay; format: in vivo, BALB/c mice
Procedure: All animal studies and procedures were approved by the Animal Ethics Committee of College of Chemistry and Chemical Engineering, Henan Normal University, China. CT26 cells (ATCC, Rockville, MD, USA) were used for tumor allograft experiments. […] Mice were injected with CT26 cells (1 × 10^7 per mouse) subcutaneously. The diameter of transplanted mouse tumors was measured with vernier calipers. […] The antitumor activity of the tested compounds was evaluated by measuring the tumor diameter. Tumor diameter and body weight were measured every two days. After 15 days, tumor tissues were surgically removed, weighed, and photographed. The tumor volume (TV) was calculated as in Eq. (1):(1) V=1/2×a×b^2 where a and b represent the length and width, respectively. Samples were used for histology. The tumor growth inhibition rate TGI (%) was calculated with Eq. (2):(2) TGI(%)=(1‒Tw/Cw)×100 where Tw and Cw are the average tumor weight on the 15th day for the treatment group and the model group, respectively.

[2] = Tissue distribution (LC-MS/MS); format: in vivo, BALB/c mice; conditions: for concentration at 4 h: BALB/c, mouse, intraperitoneal, 55 mg/kg intraperitoneally, after 4 h

CCOC(=O)[C@]1(n2cnc3c(N4CCCCC4)nc(F)nc32)CSC[C@H]1O (racemic) [33a]
Death rate (Acute toxicity assay; 90 mg/kg i.p.): 0%
Number of dead mice (Acute toxicity assay; 90 mg/kg, ♀): 0
Number of dead mice (Acute toxicity assay; 90 mg/kg, ♂): 0
Death rate (Acute toxicity assay; 260 mg/kg i.p.): 0%
Number of dead mice (Acute toxicity assay; 260 mg/kg, ♀): 0
Number of dead mice (Acute toxicity assay; 260 mg/kg, ♂): 0
Death rate (Acute toxicity assay; 350 mg/kg i.p.): 10%
Number of dead mice (Acute toxicity assay; 350 mg/kg, ♀): 1
Number of dead mice (Acute toxicity assay; 350 mg/kg, ♂): 0
Death rate (Acute toxicity assay; 450 mg/kg i.p.): 20%
Number of dead mice (Acute toxicity assay; 450 mg/kg, ♀): 2
Number of dead mice (Acute toxicity assay; 450 mg/kg, ♂): 0
Death rate (Acute toxicity assay; 600 mg/kg i.p.): 60%
Number of dead mice (Acute toxicity assay; 600 mg/kg, ♀): 3
Number of dead mice (Acute toxicity assay; 600 mg/kg, ♂): 3
Death rate (Acute toxicity assay; 800 mg/kg i.p.): 100%
Number of dead mice (Acute toxicity assay; 800 mg/kg, ♀): 5
Number of dead mice (Acute toxicity assay; 800 mg/kg, ♂): 5
LD50 at 14 days (Acute toxicity assay; both sexes, mouse, in vivo, ip, BALB/c mice, intraperitoneal, observed 14 days): 553 mg/kg
TGI ([1]; 20 mg/kg i.p. once a day for 14 days): 54.74%
IHC of tumor tissue ([1]; 55 and 20 mg/kg): significantly reduce the expression of tumor proliferation markers Ki67 and PCNA, increase the expression of cleaved caspase-3, and decrease the expression of c-MYC
effect on body weight ([1]; 55 and 20 mg/kg i.p., 14 days): did not show an obvious toxic effect on body weight
tumor growth ([1]; 55 and 20 mg/kg i.p., 14 days, tumor volume and weight): significant dose-dependent inhibitory effect on tumor growth
H&E staining of major organs ([1]; heart, liver, spleen, lung, kidney): the major organs showed no apparent evidence of injury or abnormality
blood-brain barrier passage ([2]; 55 mg/kg, 4 h): can readily cross the blood‒brain barrier
concentration at 4 h ([2]; brain, read-out: concentration in brain): 87900 ± 21500 ng/g
concentration at 4 h ([2]; heart, read-out: concentration in heart): 16900 ± 2990 ng/g
concentration at 4 h ([2]; kidney, read-out: concentration in kidney): 70400 ± 5140 ng/g
concentration at 4 h ([2]; liver, read-out: concentration in liver): 12500 ± 2130 ng/g
concentration at 4 h ([2]; lung, read-out: concentration in lung): 38500 ± 4430 ng/g
concentration at 4 h ([2]; spleen, read-out: concentration in spleen): 5490 ± 2450 ng/g
